Assay results reported in US20240327364A1, “THERAPEUTIC TARGETING OF GPR68 TO INDUCE FERROPTOSIS” (University Of Maryland, Baltimore, priority 2023, published 2024).

Assays:
CDKL1 = CDKL1 (Homo sapiens, UniProt Q00532); test: KinomeScan; format: binding; conditions: read-out: % Control
MAPKAPK2 = target: T1, MAPKAPK2 (Homo sapiens, UniProt P49137); test: KinomeScan; format: binding; conditions: read-out: % Control
T1 construct: purchased DiscoveRx (Fremont, CA)

FLT3(N841I) = target: T2, FLT3(N841I) (Homo sapiens, UniProt P36888, N841I); test: KinomeScan; format: binding; conditions: read-out: % Control
T2 construct: purchased DiscoveRx (Fremont, CA)

ACVR2B = target: T3, ACVR2B (Homo sapiens, UniProt Q13705); test: KinomeScan; format: binding; conditions: read-out: % Control
T3 construct: purchased DiscoveRx

FPR1 = target: T4, FPR1 (Homo sapiens, UniProt P21462); test: GPCR Profiler; format: cell-based
T4 construct: host or cells: Chem-1 cells expressing Gα15
T4 sequence (P21462 whole entry): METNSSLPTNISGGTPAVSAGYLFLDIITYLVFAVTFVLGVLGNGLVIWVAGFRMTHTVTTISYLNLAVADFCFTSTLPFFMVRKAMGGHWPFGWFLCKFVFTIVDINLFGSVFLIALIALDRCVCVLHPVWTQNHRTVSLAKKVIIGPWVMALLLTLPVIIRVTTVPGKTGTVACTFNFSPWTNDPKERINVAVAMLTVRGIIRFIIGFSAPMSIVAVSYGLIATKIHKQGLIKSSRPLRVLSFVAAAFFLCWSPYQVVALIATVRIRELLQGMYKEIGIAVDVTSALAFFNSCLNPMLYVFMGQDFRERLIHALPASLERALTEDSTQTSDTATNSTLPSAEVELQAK

HIPK2 = target: T5, HIPK2 (Homo sapiens, UniProt Q9H2X6); test: KinomeScan; format: binding; conditions: read-out: % Control
T5 construct: purchased DiscoveRx (Fremont, CA)

PTH1 = target: T6, PTH1 (Homo sapiens, UniProt Q03431); test: GPCR Profiler; format: cell-based
T6 construct: host or cells: Chem-1 cells with Gα15
T6 sequence (Q03431 27-593): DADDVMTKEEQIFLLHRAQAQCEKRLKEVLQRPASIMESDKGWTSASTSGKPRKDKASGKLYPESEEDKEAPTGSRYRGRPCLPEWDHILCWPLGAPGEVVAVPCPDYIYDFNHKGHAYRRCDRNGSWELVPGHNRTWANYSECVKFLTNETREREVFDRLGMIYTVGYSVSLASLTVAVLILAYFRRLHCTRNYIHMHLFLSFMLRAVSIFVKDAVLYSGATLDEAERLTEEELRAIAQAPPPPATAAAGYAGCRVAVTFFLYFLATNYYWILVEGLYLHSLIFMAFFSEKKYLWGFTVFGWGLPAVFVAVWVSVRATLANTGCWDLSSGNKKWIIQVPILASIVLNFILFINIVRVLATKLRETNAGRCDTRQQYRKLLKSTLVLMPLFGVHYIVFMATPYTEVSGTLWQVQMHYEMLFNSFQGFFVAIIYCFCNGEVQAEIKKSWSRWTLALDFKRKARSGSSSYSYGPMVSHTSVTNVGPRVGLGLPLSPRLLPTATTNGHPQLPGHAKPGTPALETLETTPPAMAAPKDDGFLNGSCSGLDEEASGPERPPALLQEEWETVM

P2Y12 = target: T7, P2Y12 (Homo sapiens, UniProt Q9H244); test: GPCR Profiler; format: cell-based
T7 construct: host or cells: Chem-1 cells expressing Gα15
T7 sequence (Q9H244 whole entry, species assumed): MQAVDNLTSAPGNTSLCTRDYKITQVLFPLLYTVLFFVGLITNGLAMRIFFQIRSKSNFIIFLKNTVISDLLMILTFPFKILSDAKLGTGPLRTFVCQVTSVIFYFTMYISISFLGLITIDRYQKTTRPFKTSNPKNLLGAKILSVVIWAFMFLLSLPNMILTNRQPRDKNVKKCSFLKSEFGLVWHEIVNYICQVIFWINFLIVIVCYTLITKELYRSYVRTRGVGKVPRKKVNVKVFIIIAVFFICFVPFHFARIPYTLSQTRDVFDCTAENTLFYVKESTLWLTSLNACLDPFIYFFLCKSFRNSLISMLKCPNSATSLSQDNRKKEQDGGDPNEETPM

CAMK1G = target: T8, CAMK1G (Homo sapiens, UniProt Q96NX5); test: KinomeScan; format: binding; conditions: read-out: % Control
T8 construct: purchased DiscoveRx (KinomeScan service)

EGFR(T790M) = target: T9, EGFR(T790M) (Homo sapiens, UniProt P00533, T790M); test: KinomeScan; format: binding; conditions: read-out: % Control
T9 construct: purchased DiscoveRx (Fremont, CA)

CAMK4 = target: T10, CAMK4 (Homo sapiens, UniProt Q16566); test: KinomeScan; format: binding; conditions: read-out: % Control
T10 construct: purchased DiscoveRx (KinomeScan service)

RIPK4 = target: T11, RIPK4 (Homo sapiens, UniProt P57078); test: KinomeScan; format: binding; conditions: read-out: % Control
T11 construct: purchased DiscoveRx (Fremont, CA)

RET(V804L) = target: T12, RET(V804L) (Homo sapiens, UniProt P07949, V804L); test: KinomeScan; format: binding; conditions: read-out: % Control
T12 construct: purchased DiscoveRx (Fremont, CA)

NEK11 = target: T13, NEK11 (Homo sapiens, UniProt Q8NG66); test: KinomeScan; format: binding; conditions: read-out: % Control
T13 construct: purchased DiscoveRx
T13 sequence (Q8NG66 whole entry): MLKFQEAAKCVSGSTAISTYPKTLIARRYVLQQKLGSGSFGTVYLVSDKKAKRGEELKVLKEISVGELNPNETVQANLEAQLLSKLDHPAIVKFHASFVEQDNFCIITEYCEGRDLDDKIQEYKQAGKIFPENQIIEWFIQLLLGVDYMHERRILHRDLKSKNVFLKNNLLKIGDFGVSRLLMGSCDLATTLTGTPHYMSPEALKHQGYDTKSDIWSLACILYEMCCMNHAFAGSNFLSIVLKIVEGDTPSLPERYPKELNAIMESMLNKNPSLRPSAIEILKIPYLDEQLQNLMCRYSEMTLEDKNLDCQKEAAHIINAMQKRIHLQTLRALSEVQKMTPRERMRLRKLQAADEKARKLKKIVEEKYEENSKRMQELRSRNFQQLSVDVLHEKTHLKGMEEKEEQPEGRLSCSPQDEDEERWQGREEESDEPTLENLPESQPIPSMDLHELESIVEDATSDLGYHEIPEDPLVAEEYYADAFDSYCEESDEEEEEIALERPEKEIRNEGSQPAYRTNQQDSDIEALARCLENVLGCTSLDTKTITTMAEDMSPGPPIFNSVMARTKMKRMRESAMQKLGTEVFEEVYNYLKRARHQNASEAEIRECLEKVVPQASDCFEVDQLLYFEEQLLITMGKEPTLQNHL

CX3CR1 = target: T14, CX3CR1 (Homo sapiens, UniProt P49238); test: GPCR Profiler; format: cell-based
T14 construct: host or cells: Chem-1 cells with Gα15
T14 sequence (P49238 whole entry, species assumed): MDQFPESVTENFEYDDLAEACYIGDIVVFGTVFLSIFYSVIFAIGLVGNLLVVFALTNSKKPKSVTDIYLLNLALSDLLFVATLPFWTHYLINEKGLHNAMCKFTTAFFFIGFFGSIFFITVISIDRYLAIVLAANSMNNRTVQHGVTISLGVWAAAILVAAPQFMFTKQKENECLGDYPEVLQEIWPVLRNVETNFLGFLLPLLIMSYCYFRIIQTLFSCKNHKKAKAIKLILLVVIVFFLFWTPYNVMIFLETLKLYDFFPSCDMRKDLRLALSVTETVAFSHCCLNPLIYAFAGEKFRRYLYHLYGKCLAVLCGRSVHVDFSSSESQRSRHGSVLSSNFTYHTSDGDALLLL

PLK3 = target: T15, PLK3 (Homo sapiens, UniProt Q9H4B4); test: KinomeScan; format: binding; conditions: read-out: % Control
T15 construct: purchased DiscoveRx (Fremont, CA)

CAMK2G = target: T16, CAMK2G (Homo sapiens, UniProt Q13555); test: KinomeScan; format: binding; conditions: read-out: % Control
T16 construct: purchased DiscoveRx (KinomeScan service)
T16 sequence (Q13555 whole entry): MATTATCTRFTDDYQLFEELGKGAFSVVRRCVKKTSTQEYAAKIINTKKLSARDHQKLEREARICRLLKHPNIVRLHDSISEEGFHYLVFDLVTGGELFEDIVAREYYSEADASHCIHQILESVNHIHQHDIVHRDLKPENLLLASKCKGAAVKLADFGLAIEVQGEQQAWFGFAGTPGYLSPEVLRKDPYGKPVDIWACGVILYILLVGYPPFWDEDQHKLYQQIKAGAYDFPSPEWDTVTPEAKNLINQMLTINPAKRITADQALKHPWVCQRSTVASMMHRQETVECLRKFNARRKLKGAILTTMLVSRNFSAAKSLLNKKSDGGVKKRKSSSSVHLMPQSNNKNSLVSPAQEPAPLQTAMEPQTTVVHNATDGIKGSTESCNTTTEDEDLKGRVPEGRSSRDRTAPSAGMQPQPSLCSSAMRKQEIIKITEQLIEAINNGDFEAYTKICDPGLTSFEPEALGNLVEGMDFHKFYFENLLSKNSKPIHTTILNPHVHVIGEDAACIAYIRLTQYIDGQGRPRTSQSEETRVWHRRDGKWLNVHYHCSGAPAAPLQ

AAK1 = target: T17, AAK1 (Homo sapiens, UniProt Q2M2I8); test: KinomeScan; format: binding; conditions: read-out: % Control
T17 construct: purchased DiscoveRx

[1] = target: T18, ABL1(F317I)-nonphosphorylated (Homo sapiens, UniProt P00519, F317I); test: KinomeScan; format: binding; conditions: read-out: % Control
T18 construct: purchased DiscoveRx

TGFBR2 = target: T19, TGFBR2 (Homo sapiens, UniProt P37173); test: KinomeScan; format: binding; conditions: read-out: % Control
T19 construct: purchased DiscoveRx (Fremont, CA)

FLT4 = target: T20, FLT4 (Homo sapiens, UniProt P35916); test: KinomeScan; format: binding; conditions: read-out: % Control
T20 construct: purchased DiscoveRx (Fremont, CA)
T20 sequence (P35916 25-1363): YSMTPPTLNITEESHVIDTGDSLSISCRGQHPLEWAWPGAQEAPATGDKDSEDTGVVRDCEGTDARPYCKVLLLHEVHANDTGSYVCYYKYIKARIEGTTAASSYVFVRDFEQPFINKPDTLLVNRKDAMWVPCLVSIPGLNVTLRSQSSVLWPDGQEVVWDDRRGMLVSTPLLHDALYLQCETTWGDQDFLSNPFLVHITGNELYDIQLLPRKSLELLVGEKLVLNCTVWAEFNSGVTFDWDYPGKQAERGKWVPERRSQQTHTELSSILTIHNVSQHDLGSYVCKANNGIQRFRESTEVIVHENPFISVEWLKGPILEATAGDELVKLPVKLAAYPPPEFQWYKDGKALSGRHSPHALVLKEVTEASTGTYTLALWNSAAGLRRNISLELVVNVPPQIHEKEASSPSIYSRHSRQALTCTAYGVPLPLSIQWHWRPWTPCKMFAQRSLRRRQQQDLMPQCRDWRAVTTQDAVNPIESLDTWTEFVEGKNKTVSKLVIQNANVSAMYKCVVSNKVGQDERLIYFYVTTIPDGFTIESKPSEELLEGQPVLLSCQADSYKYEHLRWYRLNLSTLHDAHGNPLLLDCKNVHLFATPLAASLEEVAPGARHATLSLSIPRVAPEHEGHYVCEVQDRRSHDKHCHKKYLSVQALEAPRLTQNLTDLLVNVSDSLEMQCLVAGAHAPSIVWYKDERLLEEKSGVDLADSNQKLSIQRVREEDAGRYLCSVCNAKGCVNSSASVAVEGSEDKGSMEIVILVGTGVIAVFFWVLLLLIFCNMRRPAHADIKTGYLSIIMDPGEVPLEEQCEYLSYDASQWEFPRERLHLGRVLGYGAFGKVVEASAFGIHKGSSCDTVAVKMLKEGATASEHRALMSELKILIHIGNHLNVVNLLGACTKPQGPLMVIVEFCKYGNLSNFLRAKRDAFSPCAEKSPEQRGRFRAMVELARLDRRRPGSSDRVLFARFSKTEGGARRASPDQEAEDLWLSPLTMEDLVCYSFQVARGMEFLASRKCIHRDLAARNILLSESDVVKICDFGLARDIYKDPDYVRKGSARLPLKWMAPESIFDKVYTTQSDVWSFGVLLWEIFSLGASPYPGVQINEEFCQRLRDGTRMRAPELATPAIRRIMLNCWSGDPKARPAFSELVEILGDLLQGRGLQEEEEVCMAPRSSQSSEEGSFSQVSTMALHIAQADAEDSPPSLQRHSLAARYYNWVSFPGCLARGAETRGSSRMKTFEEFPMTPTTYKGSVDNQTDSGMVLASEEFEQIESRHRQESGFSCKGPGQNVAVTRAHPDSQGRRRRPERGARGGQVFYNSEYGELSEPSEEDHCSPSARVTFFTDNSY

CTK = CTK (Homo sapiens, UniProt P42679); test: KinomeScan; format: binding; conditions: read-out: % Control
MINK = target: T21, MINK (Homo sapiens, UniProt Q8N4C8); test: KinomeScan; format: binding; conditions: read-out: % Control
T21 construct: purchased DiscoveRx

NLK = target: T22, NLK (Homo sapiens, UniProt Q9UBE8); test: KinomeScan; format: binding; conditions: read-out: % Control
T22 construct: purchased DiscoveRx

NMU1 = target: T23, NMU1 (Homo sapiens, UniProt Q9HB89); test: GPCR Profiler; format: cell-based
T23 construct: host or cells: Chem-1 cells expressing Gα15
T23 sequence (Q9HB89 whole entry): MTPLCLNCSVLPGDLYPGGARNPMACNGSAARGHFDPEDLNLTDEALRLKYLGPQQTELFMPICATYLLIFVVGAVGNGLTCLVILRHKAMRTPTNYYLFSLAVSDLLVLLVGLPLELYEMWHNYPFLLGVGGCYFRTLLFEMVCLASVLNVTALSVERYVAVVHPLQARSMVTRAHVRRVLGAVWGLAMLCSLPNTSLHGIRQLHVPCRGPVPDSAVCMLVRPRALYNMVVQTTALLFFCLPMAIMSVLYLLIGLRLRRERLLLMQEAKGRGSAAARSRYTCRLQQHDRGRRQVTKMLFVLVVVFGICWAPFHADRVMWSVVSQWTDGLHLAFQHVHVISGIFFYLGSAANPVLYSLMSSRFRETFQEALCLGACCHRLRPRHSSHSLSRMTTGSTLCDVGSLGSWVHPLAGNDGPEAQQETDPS

FES = target: T24, FES (Homo sapiens, UniProt P07332); test: KinomeScan; format: binding; conditions: read-out: % Control
T24 construct: purchased DiscoveRx (Fremont, CA)

SRPK1 = target: T25, SRPK1 (Homo sapiens, UniProt Q96SB4); test: KinomeScan; format: binding; conditions: read-out: % Control
T25 construct: purchased DiscoveRx (Fremont, CA)

CSNK1A1 = CSNK1A1 (Homo sapiens, UniProt P48729); test: KinomeScan; format: binding; conditions: read-out: % Control
Y4 = target: T26, Y4 (Homo sapiens, UniProt P50391); test: GPCR Profiler; format: cell-based
T26 construct: host or cells: Chem-1 cells expressing Galpha15
T26 sequence (P50391 whole entry): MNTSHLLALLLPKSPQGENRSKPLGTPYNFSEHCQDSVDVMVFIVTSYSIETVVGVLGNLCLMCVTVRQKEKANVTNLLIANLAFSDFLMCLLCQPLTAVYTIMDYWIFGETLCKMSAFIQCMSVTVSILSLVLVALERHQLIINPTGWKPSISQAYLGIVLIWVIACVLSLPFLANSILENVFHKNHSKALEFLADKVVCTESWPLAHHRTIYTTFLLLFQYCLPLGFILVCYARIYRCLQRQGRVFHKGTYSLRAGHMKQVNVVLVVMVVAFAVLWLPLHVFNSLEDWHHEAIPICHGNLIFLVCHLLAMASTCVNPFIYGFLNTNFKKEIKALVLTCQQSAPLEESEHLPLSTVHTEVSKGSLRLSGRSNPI

NEK6 = target: T27, NEK6 (Homo sapiens, UniProt Q9HC98); test: KinomeScan; format: binding; conditions: read-out: % Control
T27 construct: purchased DiscoveRx

BMPR1A = target: T28, BMPR1A (Homo sapiens, UniProt P36894); test: KinomeScan; format: binding; conditions: read-out: % Control
T28 construct: purchased DiscoveRx (Fremont, CA)

BTK = target: T29, BTK (Homo sapiens, UniProt Q06187); test: KinomeScan; format: binding; conditions: read-out: % Control
T29 construct: purchased DiscoveRx (KinomeScan service)

A549 = test: Clonogenicity (crystal violet); format: cell-based; conditions: 8 days
Method: A549 lung cancer cells were plated at 300 cells per well in a 6-well plate and on the next day were treated with increasing concentrations of OGM2 for 8 days. The plate was fixed with formalin and stained with crystal violet. See FIG. 27B for results at the indicated concentrations.

U87 = test: GSH-Glo Glutathione Assay; format: cell-based, human; conditions: 2 μM OGM2 for 24 hours
Method: GSH-Glo™ Glutathione Assay (Promega™) was performed according to manufacturer protocol. Briefly, U87 cells were plated at 10,000 cells per well in a 96-well plate. The following day cells were treated with DMSO control vehicle or 2 μM OGM2 for 24 hours. Medium was removed from wells and 100 μl GSH-Glo™ Reagent was added to each well and incubated on a plate shaker for 30 minutes. One hundred microliters Luciferin Detection Reagent was added to each well and mixed briefly. After 15 minutes incubation, luminescence was detected on Promega™ GloMax luminometer.

Question: What does the source list for `CCc1ccc2c(c1)C1(NN=C(c3cccc4ccccc34)S1)C(=O)N2` (stereo not shown) [OGM1, 5-ethyl-5′-naphthalen-1-ylspiro[1H-indole-3,2′-3H-1,3,4-thiadiazole]-2-one]?
Answer: remaining binding at 10 µM (CDKL1): 88%; remaining binding at 10 µM (MAPKAPK2): 100%; remaining binding at 10 µM (FLT3(N841I)): 91%; remaining binding at 10 µM (ACVR2B): 100%; Antagonism (FPR1; 10 uM): 14.3; Agonism (FPR1; 12.5 uM): −0.2; remaining binding at 10 µM (HIPK2): 100%; Antagonism (PTH1; 10 uM): 2.2; Agonism (PTH1; 12.5 uM): 0.7; Antagonism (P2Y12; 10 uM): −0.3; Agonism (P2Y12; 12.5 uM): 1; remaining binding at 10 µM (CAMK1G): 80%; remaining binding at 10 µM (EGFR(T790M)): 74%; remaining binding at 10 µM (CAMK4): 100%; remaining binding at 10 µM (RIPK4): 81%; remaining binding at 10 µM (RET(V804L)): 90%; remaining binding at 10 µM (NEK11): 88%; Antagonism (CX3CR1; 10 uM): −12.1; Agonism (CX3CR1; 12.5 uM): 0.3; remaining binding at 10 µM (PLK3): 100%; remaining binding at 10 µM (CAMK2G): 85%; remaining binding at 10 µM (AAK1): 100%; remaining binding at 10 µM [1]: 100%; remaining binding at 10 µM (TGFBR2): 100%; remaining binding at 10 µM (FLT4): 100%; remaining binding at 10 µM (CTK): 100%; remaining binding at 10 µM (MINK): 97%; remaining binding at 10 µM (NLK): 100%; Antagonism (NMU1; 10 uM): 6.2; Agonism (NMU1; 12.5 uM): 1.8; remaining binding at 10 µM (FES): 100%; remaining binding at 10 µM (SRPK1): 77%; remaining binding at 10 µM (CSNK1A1): 75%; Antagonism (Y4; 10 uM): −5.5; Agonism (Y4; 12.5 uM): −0.2; remaining binding at 10 µM (NEK6): 100%; remaining binding at 10 µM (BMPR1A): 100%; remaining binding at 10 µM (BTK): 88%

Question: `CCc1ccc2c(c1)C1(NN=C(c3ccccc3)S1)C(=O)N2` (stereo not shown) [OGM2] was tested. Which clonogenicity (A549) did it give?
Answer: reduced the clonogenicity of lung cancer cells

Question: And the glutathione levels (U87)?
Answer: dramatically reduced glutathione levels
